{
  "source": "paper PMC6187366",
  "about": "“Highly Sensitive Label-Free Detection of Small Molecules with an Optofluidic Microbubble Resonator” (Micromachines, 2018)",
  "biological_target": "Streptavidin (SA) (Streptomyces avidinii, UniProt P22629)",
  "sequence (P22629 25-183)": "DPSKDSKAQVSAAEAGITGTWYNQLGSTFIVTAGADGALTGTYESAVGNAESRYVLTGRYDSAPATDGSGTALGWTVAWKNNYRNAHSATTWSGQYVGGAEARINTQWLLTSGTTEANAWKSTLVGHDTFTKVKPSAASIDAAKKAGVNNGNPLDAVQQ",
  "assay": "label-free optofluidic microbubble resonator, kinetic kon/koff global Langmuir fit",
  "format": "binding",
  "conditions": "read-out: ka (M)^-1 (converted)",
  "source_text": "label-free optofluidic microbubble resonator, kinetic kon/koff global Langmuir fit on Streptavidin (SA)",
  "data": [
    {"compound": "C=CCc1ccc(O)c(-c2cc(CC=C)ccc2O)c1", "note": "[magnolol]", "values": [
      {"measurement": "Kd", "result": "2.13e-11", "unit": "M"}
    ]}
  ]
}
